Molecules are shown by their SMILES.

Sequence of GCN2 kinase (Q9P2K8 whole entry): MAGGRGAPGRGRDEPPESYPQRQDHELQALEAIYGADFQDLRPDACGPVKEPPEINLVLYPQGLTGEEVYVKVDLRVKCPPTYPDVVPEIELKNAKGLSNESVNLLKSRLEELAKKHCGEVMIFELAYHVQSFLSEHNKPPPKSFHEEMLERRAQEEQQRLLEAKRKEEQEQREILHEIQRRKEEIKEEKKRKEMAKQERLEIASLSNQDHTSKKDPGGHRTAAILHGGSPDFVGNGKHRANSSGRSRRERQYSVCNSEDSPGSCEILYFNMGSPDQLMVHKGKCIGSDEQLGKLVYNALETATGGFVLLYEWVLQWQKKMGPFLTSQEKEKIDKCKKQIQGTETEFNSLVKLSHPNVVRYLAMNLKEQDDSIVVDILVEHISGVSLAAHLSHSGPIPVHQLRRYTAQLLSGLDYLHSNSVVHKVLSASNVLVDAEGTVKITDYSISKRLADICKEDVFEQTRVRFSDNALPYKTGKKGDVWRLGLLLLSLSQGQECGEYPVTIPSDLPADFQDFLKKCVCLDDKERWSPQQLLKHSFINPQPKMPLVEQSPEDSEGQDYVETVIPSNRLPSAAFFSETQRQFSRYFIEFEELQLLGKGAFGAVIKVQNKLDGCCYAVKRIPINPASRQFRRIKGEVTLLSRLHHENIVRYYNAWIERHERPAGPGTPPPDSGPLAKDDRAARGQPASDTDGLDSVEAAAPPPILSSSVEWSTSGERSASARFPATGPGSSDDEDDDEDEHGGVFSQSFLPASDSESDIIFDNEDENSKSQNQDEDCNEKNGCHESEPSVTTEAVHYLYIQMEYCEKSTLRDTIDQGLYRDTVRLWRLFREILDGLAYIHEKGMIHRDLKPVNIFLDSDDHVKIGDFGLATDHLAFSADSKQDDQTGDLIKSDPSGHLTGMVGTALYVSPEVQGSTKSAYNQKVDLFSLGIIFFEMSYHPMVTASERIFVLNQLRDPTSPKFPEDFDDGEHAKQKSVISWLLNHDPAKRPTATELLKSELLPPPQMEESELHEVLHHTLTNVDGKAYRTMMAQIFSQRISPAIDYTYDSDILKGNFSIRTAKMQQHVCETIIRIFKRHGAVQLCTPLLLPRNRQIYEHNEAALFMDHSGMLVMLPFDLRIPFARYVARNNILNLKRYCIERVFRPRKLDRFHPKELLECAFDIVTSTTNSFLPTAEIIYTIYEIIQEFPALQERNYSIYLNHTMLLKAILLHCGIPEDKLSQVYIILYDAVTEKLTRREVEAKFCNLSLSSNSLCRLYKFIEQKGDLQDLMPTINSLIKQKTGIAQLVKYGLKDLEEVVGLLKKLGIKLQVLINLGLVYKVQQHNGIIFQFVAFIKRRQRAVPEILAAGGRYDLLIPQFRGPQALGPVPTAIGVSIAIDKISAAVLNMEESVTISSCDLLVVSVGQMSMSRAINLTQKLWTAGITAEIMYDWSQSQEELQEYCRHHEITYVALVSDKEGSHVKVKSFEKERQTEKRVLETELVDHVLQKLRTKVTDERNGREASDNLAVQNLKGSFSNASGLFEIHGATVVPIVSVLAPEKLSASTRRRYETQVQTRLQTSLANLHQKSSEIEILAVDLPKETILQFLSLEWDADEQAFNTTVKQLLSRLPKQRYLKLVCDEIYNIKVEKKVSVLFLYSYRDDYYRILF

This experiment addresses GCN2 kinase (Homo sapiens, UniProt Q9P2K8). Briefly: GCN2 enzyme inhibition assay (Transcreener ADP2 fluorescence polarization). Format: biochemical. The settings on record: compounds of Formula II; 280 μM ATP, 4 nM GCN2 kinase. The method in brief:
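Human GCN2 (4 nM) preincubated 10 min with compound (0–8 μM) and 200 μM (RS)7 peptide in Tris-HCl pH 7.5, NaCl, MgCl2, DTT. Reaction started with 280 μM ATP, run 1 h at 25 °C. ADP detected by Transcreener fluorescence polarization. IC50 and Ki(app) fitted by tight-binding algorithm.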
Usually Ki stands for a dissociation constant, usually derived from enzyme kinetics or from competition with a known ligand. A higher Ki goes with weaker binding. In the case of `OC[C@@H]1CCCN(c2cc(-c3cnc4ccc(C(F)(F)F)nn34)ncn2)C1` [II-517, (R)-(1-(6-(6-(Trifluoromethyl)imidazo[1,2-b]pyridazin-3-yl)pyrimidin-4-yl)piperidin-3-yl)methanol], the Ki was 10 to 1000 nM.

As for `[2H]C([2H])(NS(C)(=O)=O)C1CCCN(c2cc(-c3cnc4ccc(C(F)F)nn34)ncn2)C1` (centres unmarked) [II-524, N-((1-(6-(6-(Difluoromethyl)imidazo[1,2-b]pyridazin-3-yl)pyrimidin-4-yl)piperidin-3-yl)methyl-d2)methanesulfonamide], the Ki is below 10 nM.

`N#CC1CN(c2cc(-c3cnc4ccc(C(F)F)nn34)ncn2)CCO1` (centres unmarked) [II-531, 4-(6-(6-(Difluoromethyl)imidazo[1,2-b]pyridazin-3-yl)pyrimidin-4-yl)morpholine-2-carbonitrile] gave an inhibition constant (Ki) of 10 to 1000 nM.

Regarding `N#CC1CCCN(c2cc(-c3cnc4ccc(C(F)F)nn34)ncn2)C1` (centres unmarked) [II-532, 1-(6-(6-(Difluoromethyl)imidazo[1,2-b]pyridazin-3-yl)pyrimidin-4-yl)piperidine-3-carbonitrile], the inhibition constant (Ki) was in the range of 10 to 1000 nM.

Turning to `N#CC1CN(c2cc(-c3cnc4ccc(C(F)(F)F)nn34)ncn2)CCO1` (centres unmarked) [II-533, 4-(6-(6-(Trifluoromethyl)imidazo[1,2-b]pyridazin-3-yl)pyrimidin-4-yl)morpholine-2-carbonitrile], the Ki is 10 to 1000 nM.

`N#CC1CCCN(c2cc(-c3cnc4ccc(C(F)(F)F)nn34)ncn2)C1` (centres unmarked) [II-534, 1-(6-(6-(Trifluoromethyl)imidazo[1,2-b]pyridazin-3-yl)pyrimidin-4-yl)piperidine-3-carbonitrile] registered a Ki of 10 to 1000 nM.

As for `CC1C(CCO)N(C)CCN1c1cc(-c2cnc3ccc(C(F)F)nn23)ncn1` (centres unmarked) [II-536, 2-(4-(6-(6-(Difluoromethyl)imidazo[1,2-b]pyridazin-3-yl)pyrimidin-4-yl)-1,3-dimethylpiperazin-2-yl)ethan-1-ol], the inhibition constant (Ki) lay in the range of 10 to 1000 nM.

In the case of `CC(=O)N1CCC(c2cc(-c3cnc4ccc(C(F)F)nn34)ncn2)CC1` [II-539], the inhibition constant (Ki) fell in the range of 10 to 1000 nM.

On to `COCCOC1CC(CNS(C)(=O)=O)CN(c2cc(-c3cnc4ccc(C(F)F)nn34)ncn2)C1` (centres unmarked) [II-549, N-((1-(6-(6-(Difluoromethyl)imidazo[1,2-b]pyridazin-3-yl)pyrimidin-4-yl)-5-(2-methoxyethoxy)piperidin-3-yl)methyl)methanesulfonamide], for which the Ki was in the range of 10 to 1000 nM.

Compound `COCCOC1CC(CNS(C)(=O)=O)CN(c2cc(-c3cnc4ccc(C(F)F)nn34)ncn2)C1` (centres unmarked) [II-550, N-((1-(6-(6-(Difluoromethyl)imidazo[1,2-b]pyridazin-3-yl)pyrimidin-4-yl)-5-(2-methoxyethoxy)piperidin-3-yl)methyl)methanesulfonamide] came in with a Ki below 10 nM.

`CC1CCC(NS(C)(=O)=O)CN1c1cc(-c2cnc3ccc(C(F)F)nn23)ncn1` (centres unmarked) [II-551, N-(1-(6-(6-(Difluoromethyl)imidazo[1,2-b]pyridazin-3-yl)pyrimidin-4-yl)-6-methylpiperidin-3-yl)methanesulfonamide] showed a Ki of 10 to 1000 nM.

`CC1CCC(NS(C)(=O)=O)CN1c1cc(-c2cnc3ccc(C(F)F)nn23)ncn1` (centres unmarked) [II-552, N-(1-(6-(6-(Difluoromethyl)imidazo[1,2-b]pyridazin-3-yl)pyrimidin-4-yl)-6-methylpiperidin-3-yl)methanesulfonamide] returned a Ki of 10 to 1000 nM.

As to `CC1C(CO)CCCN1c1cc(-c2cnc3ccc(C(F)F)nn23)ncn1` (centres unmarked) [II-554, (1-(6-(6-(Difluoromethyl)imidazo[1,2-b]pyridazin-3-yl)pyrimidin-4-yl)-2-methylpiperidin-3-yl)methanol], the Ki was in the range of 10 to 1000 nM.

For `CC1C(CO)CCCN1c1cc(-c2cnc3ccc(C(F)F)nn23)ncn1` (centres unmarked) [II-555, (1-(6-(6-(Difluoromethyl)imidazo[1,2-b]pyridazin-3-yl)pyrimidin-4-yl)-2-methylpiperidin-3-yl)methanol], the Ki lay in the range of 10 to 1000 nM.

`CC1C(CO)N(C(C)(C)C)CCN1c1cc(-c2cnc3ccc(C(F)F)nn23)ncn1` (centres unmarked) [II-556, (1-(tert-Butyl)-4-(6-(6-(difluoromethyl)imidazo[1,2-b]pyridazin-3-yl)pyrimidin-4-yl)-3-methylpiperazin-2-yl)methanol] yielded a Ki of 10 to 1000 nM.

As to `CC1C(CNS(C)(=O)=O)N(C(C)(C)C)CCN1c1cc(-c2cnc3ccc(C(F)F)nn23)ncn1` (centres unmarked) [II-559, N-((1-(tert-Butyl)-4-(6-(6-(difluoromethyl)imidazo[1,2-b]pyridazin-3-yl)pyrimidin-4-yl)-3-methylpiperazin-2-yl)methyl)methanesulfonamide], the Ki lay in the range of 10 to 1000 nM.

`CS(=O)(=O)NCC1CN(c2cc(-c3cnc4ccc(C(F)F)nn34)ncn2)C[C@@H]2CCCN12` (stereo partly drawn) [II-560, N-(((8aS)-2-(6-(6-(Difluoromethyl)imidazo[1,2-b]pyridazin-3-yl)pyrimidin-4-yl)octahydropyrrolo[1,2-a]pyrazin-4-yl)methyl)methanesulfonamide] came in with a Ki below 10 nM.

`[2H]C([2H])([2H])N1CCN(c2cc(-c3cnc4ccc(C(F)F)nn34)ncn2)C(C)C1CNS(C)(=O)=O` (centres unmarked) [II-561, N-((4-(6-(6-(Difluoromethyl)imidazo[1,2-b]pyridazin-3-yl)pyrimidin-4-yl)-3-methyl-1-(methyl-d3)piperazin-2-yl)methyl)methanesulfonamide] came in with a Ki of 10 to 1000 nM.

As to `[2H]C([2H])([2H])N1CCN(c2cc(-c3cnc4ccc(C(F)F)nn34)ncn2)C(C)C1CNS(C)(=O)=O` (centres unmarked) [II-562, N-((4-(6-(6-(Difluoromethyl)imidazo[1,2-b]pyridazin-3-yl)pyrimidin-4-yl)-3-methyl-1-(methyl-d3)piperazin-2-yl)methyl)methanesulfonamide], the Ki is below 10 nM.

Turning to `O=S1(=O)CCCC1C1CCCN(c2cc(-c3cnc4ccc(C(F)F)nn34)ncn2)C1` (centres unmarked) [II-563, 2-(1-(6-(6-(Difluoromethyl)imidazo[1,2-b]pyridazin-3-yl)pyrimidin-4-yl)piperidin-3-yl)tetrahydrothiophene 1,1-dioxide], the Ki lay within 10 to 1000 nM.

Turning to `CS(=O)(=O)NCC1CN(c2cc(-c3cnc4ccc(C(F)F)nn34)ncn2)CCC12CC2` (centres unmarked) [II-566, N-((6-(6-(6-(Difluoromethyl)imidazo[1,2-b]pyridazin-3-yl)pyrimidin-4-yl)-6-azaspiro[2.5]octan-4-yl)methyl)methanesulfonamide], the Ki was below 10 nM.

For the compound `CC1(C)CN(c2cc(-c3cnc4ccc(C(F)F)nn34)ncn2)CC(CNS(C)(=O)=O)N1` (centres unmarked) [II-567, N-((4-(6-(6-(Difluoromethyl)imidazo[1,2-b]pyridazin-3-yl)pyrimidin-4-yl)-6,6-dimethylpiperazin-2-yl)methyl)methanesulfonamide], the Ki is 10 to 1000 nM.

For `CS(=O)(=O)NCC1CN(c2cc(-c3cnc4ccc(C(F)F)nn34)ncn2)C[C@@H]2C[C@H](F)CN12` (stereo partly drawn) [II-568, N-(((7S,8aS)-2-(6-(6-(Difluoromethyl)imidazo[1,2-b]pyridazin-3-yl)pyrimidin-4-yl)-7-fluorooctahydropyrrolo[1,2-a]pyrazin-4-yl)methyl)methanesulfonamide], the Ki is below 10 nM.

`CC1(C)CN(c2cc(-c3cnc4ccc(C(F)F)nn34)ncn2)CC(CNS(C)(=O)=O)N1` (centres unmarked) [II-569, N-((4-(6-(6-(Difluoromethyl)imidazo[1,2-b]pyridazin-3-yl)pyrimidin-4-yl)-6,6-dimethylpiperazin-2-yl)methyl)methanesulfonamide] gave a Ki of 10 to 1000 nM.

For `CC1(C)CN(c2cc(-c3cnc4ccc(C(F)F)nn34)ncn2)CC(CNS(C)(=O)=O)N1` (centres unmarked) [II-570, N-((4-(6-(6-(Difluoromethyl)imidazo[1,2-b]pyridazin-3-yl)pyrimidin-4-yl)-6,6-dimethylpiperazin-2-yl)methyl)methanesulfonamide], the Ki was in the range of 10 to 1000 nM.

For `CCC(NS(C)(=O)=O)C1CN(c2cc(-c3cnc4ccc(C(F)F)nn34)ncn2)CCO1` (centres unmarked) [II-571, N-(1-(4-(6-(6-(Difluoromethyl)imidazo[1,2-b]pyridazin-3-yl)pyrimidin-4-yl)morpholin-2-yl)propyl)methanesulfonamide], the Ki was in the range of 10 to 1000 nM.

The compound `CCC(NS(C)(=O)=O)C1CN(c2cc(-c3cnc4ccc(C(F)F)nn34)ncn2)CCO1` (centres unmarked) [II-572, N-(1-(4-(6-(6-(Difluoromethyl)imidazo[1,2-b]pyridazin-3-yl)pyrimidin-4-yl)morpholin-2-yl)propyl)methanesulfonamide] gave a Ki of 10 to 1000 nM.

Regarding `CS(C)(=O)=NCC1CCCN(c2cc(-c3cnc4ccc(C(F)F)nn34)ncn2)C1` (centres unmarked) [II-573, (((1-(6-(6-(Difluoromethyl)imidazo[1,2-b]pyridazin-3-yl)pyrimidin-4-yl)piperidin-3-yl)methyl)imino)dimethyl-λ^6-sulfanone], the inhibition constant (Ki) lay within 10 to 1000 nM.

`CS(C)(=O)=NCC1CCCN(c2cc(-c3cnc4ccc(C(F)F)nn34)ncn2)C1` (centres unmarked) [II-574, (((1-(6-(6-(Difluoromethyl)imidazo[1,2-b]pyridazin-3-yl)pyrimidin-4-yl)piperidin-3-yl)methyl)imino)dimethyl-λ^6-sulfanone] registered an inhibition constant Ki of 10 to 1000 nM.

For `Cc1c(CNS(C)(=O)=O)cccc1-c1cc(-c2cnc3ccc(C(F)F)nn23)ncn1` [II-575, N-[[3-[6-[6-(Difluoromethyl)imidazo[1,2-b]pyridazin-3-yl]pyrimidin-4-yl]-2-methyl-phenyl]methyl]methanesulfonamide], the Ki fell in the range of 10 to 1000 nM.

Turning to `CS(=O)(=O)NCc1cccc(-c2cc(-c3cnc4ccc(C(F)F)nn34)ncn2)c1` [II-576, N-[[3-[6-[6-(Difluoromethyl)imidazo[1,2-b]pyridazin-3-yl]pyrimidin-4-yl]phenyl]methyl]methanesulfonamide], the Ki was below 10 nM.

In turn, `CC1CC(CO)C(C)N(c2cc(-c3cnc4ccc(C(F)F)nn34)ncn2)C1` (centres unmarked) [II-577, (1-(6-(6-(Difluoromethyl)imidazo[1,2-b]pyridazin-3-yl)pyrimidin-4-yl)-2,5-dimethylpiperidin-3-yl)methanol] showed a Ki below 10 nM.

For the origin of these results see patent US10988477B2 (Merck Patent GmbH, priority 2018, dated 2021).
